Molecules are shown by their SMILES.

This note sets out measurements from BindingDB's records for patent US20230312550 (Astrazeneca, 2023).

The experiment has as its target T1, Prolyl endopeptidase FAP (Homo sapiens, UniProt Q12884).
T1 sequence (Q12884 whole entry): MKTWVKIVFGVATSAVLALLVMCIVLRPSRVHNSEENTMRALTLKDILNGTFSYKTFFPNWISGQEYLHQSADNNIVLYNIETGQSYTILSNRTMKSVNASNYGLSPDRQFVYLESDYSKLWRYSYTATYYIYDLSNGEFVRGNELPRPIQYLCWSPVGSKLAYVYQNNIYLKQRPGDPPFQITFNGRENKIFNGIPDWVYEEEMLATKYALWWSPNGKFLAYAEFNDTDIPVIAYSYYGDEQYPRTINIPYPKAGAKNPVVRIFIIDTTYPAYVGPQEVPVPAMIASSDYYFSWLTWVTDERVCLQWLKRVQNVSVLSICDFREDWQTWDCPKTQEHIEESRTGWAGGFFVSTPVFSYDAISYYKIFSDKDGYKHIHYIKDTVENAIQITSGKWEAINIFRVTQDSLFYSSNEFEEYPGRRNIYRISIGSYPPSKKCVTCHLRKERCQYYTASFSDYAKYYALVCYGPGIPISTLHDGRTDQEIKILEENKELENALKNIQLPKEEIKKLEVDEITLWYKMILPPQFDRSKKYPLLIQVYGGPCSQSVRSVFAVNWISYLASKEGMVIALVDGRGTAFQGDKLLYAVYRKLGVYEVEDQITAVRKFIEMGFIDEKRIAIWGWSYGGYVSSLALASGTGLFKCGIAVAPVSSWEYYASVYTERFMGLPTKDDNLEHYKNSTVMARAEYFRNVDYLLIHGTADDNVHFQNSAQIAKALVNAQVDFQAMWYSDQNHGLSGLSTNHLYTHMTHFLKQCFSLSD
Put plainly: hFAP Binding Assay. The note with it: for kon: read-out: kon (M-1-s-1).

The term koff denotes the rate constant with which the complex falls apart. A lower koff goes with a long-lived complex. By kon is commonly meant the second-order rate constant of association. For `N#C[C@@H]1CSCN1C(=O)CNC(=O)c1ccnc2ccc(N3CC(CF)C3)cc12` [US20230312550, Example 113], the koff was found to be 4.5e-05 s⁻¹ and the kon worked out at 1.5e+06 M⁻¹ s⁻¹.
Consider `CC1(O)CCN(c2ccc3nccc(C(=O)NCC(=O)N4CSC[C@H]4C#N)c3c2)CC1` [US20230312550, Example 190], for which the koff came to 3.6e-05 s⁻¹ and the kon amounted to 1.8e+06 M⁻¹ s⁻¹.
Regarding `N#C[C@@H]1CSCN1C(=O)CNC(=O)c1ccnc2ccc(N3CCC(F)(c4ccccc4)CC3)cc12` [US20230312550, Example 223], the koff came out at 2.6e-05 s⁻¹ and the kon is 2.5e+06 M⁻¹ s⁻¹.
Consider `COC[C@@H]1CCCN1c1ccc2nccc(C(=O)NCC(=O)N3CSC[C@H]3C#N)c2c1` [US20230312550, Example 212], for which the koff was 0.00034 s⁻¹ and the kon came out at 3.3e+06 M⁻¹ s⁻¹.
As for `CC(C)C1(O)CCN(c2ccc3nccc(C(=O)NCC(=O)N4CSC[C@H]4C#N)c3c2)CC1` [US20230312550, Example 192], the koff is 1.4e-05 s⁻¹ and the kon worked out at 1.3e+06 M⁻¹ s⁻¹.
On to `N#C[C@@H]1CSCN1C(=O)CNC(=O)c1ccnc2ccc(N3CCC[C@H]3C3CC3)cc12` [US20230312550, Example 200], for which the koff was 0.00023 s⁻¹ and the kon is 2.5e+06 M⁻¹ s⁻¹.
For the molecule `CCC1(O)CCN(c2ccc3nccc(C(=O)NCC(=O)N4CSC[C@H]4C#N)c3c2)CC1` [US20230312550, Example 189], the koff amounted to 5.1e-05 s⁻¹ and the kon is 2.6e+06 M⁻¹ s⁻¹.
For `C[C@@H]1COC[C@@H](C)N1c1ccc2nccc(C(=O)NCC(=O)N3CSC[C@H]3C#N)c2c1` [US20230312550, Example 105] the same measures were 6.8e-05 s⁻¹ and 890000 M⁻¹ s⁻¹.
Turning to `CC(C)C1CN(c2ccc3nccc(C(=O)NCC(=O)N4CSC[C@H]4C#N)c3c2)C1` [US20230312550, Example 148], the koff was 0.0002 s⁻¹ and the kon came to 6.6e+06 M⁻¹ s⁻¹.
Consider `CS(=O)(=O)C[C@H]1CN(c2ccc3nccc(C(=O)NCC(=O)N4CSC[C@H]4C#N)c3c2)CCO1` [US20230312550, Example 92], for which the koff is 0.00011 s⁻¹ and the kon is 2.2e+06 M⁻¹ s⁻¹.
Consider `C[C@H]1CCCN1c1ccc2nccc(C(=O)NCC(=O)N3CSC[C@H]3C#N)c2c1` [US20230312550, Example 65], for which the dissociation rate constant (koff) was 0.00047 s⁻¹ and the kon came to 6.7e+06 M⁻¹ s⁻¹.
Turning to `CC1(C)CN(c2ccc3nccc(C(=O)NCC(=O)N4CSC[C@H]4C#N)c3c2)CCO1` [US20230312550, Example 88], the koff was 0.00034 s⁻¹ and the on-rate constant (kon) came to 4.2e+06 M⁻¹ s⁻¹.
With `COC[C@H]1[C@H](C)OCCN1c1ccc2nccc(C(=O)NCC(=O)N3CSC[C@H]3C#N)c2c1` [US20230312550, Example 96], the koff worked out at 0.00022 s⁻¹ and the kon came to 4e+06 M⁻¹ s⁻¹.
`CC1(C(F)F)CN(c2ccc3nccc(C(=O)NCC(=O)N4CSC[C@H]4C#N)c3c2)C1` [US20230312550, Example 135]: the koff was found to be 2.3e-05 s⁻¹ and the kon stood at 1.7e+06 M⁻¹ s⁻¹.
In the case of `N#C[C@@H]1CSCN1C(=O)CNC(=O)c1ccnc2ccc(N3C[C@@H]4CCC[C@@H]43)cc12` (mixture of isomers) [US20230312550, Example 156], the dissociation rate constant (koff) amounted to 6.6e-05 s⁻¹ and the kon was determined as 1.2e+06 M⁻¹ s⁻¹.
As to `COCC1(C)CN(c2ccc3nccc(C(=O)NCC(=O)N4CSC[C@H]4C#N)c3c2)C1` [US20230312550, Example 29], the koff turned out to be 6.1e-05 s⁻¹ and the kon was determined as 1.1e+06 M⁻¹ s⁻¹.
For `C[C@H]1CCCN(c2ccc3nccc(C(=O)NCC(=O)N4CSC[C@H]4C#N)c3c2)C1=O` [US20230312550, Example 203], the koff worked out at 6.3e-05 s⁻¹ and the kon worked out at 440000 M⁻¹ s⁻¹.
With `CO[C@H]1CCCN(c2ccc3nccc(C(=O)NCC(=O)N4CSC[C@H]4C#N)c3c2)C1` [US20230312550, Example 41], the koff amounted to 6.4e-05 s⁻¹ and the kon amounted to 680000 M⁻¹ s⁻¹.
For `N#C[C@@H]1CSCN1C(=O)CNC(=O)c1ccnc2ccc(N3CC4(CCCC4(F)F)C3)cc12` [US20230312550, Example 141], the koff was determined as 7.8e-05 s⁻¹ and the kon came out at 1.4e+06 M⁻¹ s⁻¹.
Regarding `Cc1cc(C(F)(F)F)nn1-c1ccc2nccc(C(=O)NCC(=O)N3CSC[C@H]3C#N)c2c1` [US20230312550, Example 116], the koff is 0.0012 s⁻¹ and the kon was found to be 7.9e+06 M⁻¹ s⁻¹.
For the molecule `CC1(C)CCCN1c1ccc2nccc(C(=O)NCC(=O)N3CSC[C@H]3C#N)c2c1` [US20230312550, Example 57], the koff amounted to 0.00018 s⁻¹ and the kon worked out at 8e+06 M⁻¹ s⁻¹.
`N#C[C@@H]1CSCN1C(=O)CNC(=O)c1ccnc2ccc(N3CC(Cc4ccc(Cl)cc4)C3)cc12` [US20230312550, Example 187]: the koff amounted to 0.00022 s⁻¹ and the kon came out at 3.1e+06 M⁻¹ s⁻¹.
For `CCC1(C)CN(c2ccc3nccc(C(=O)NCC(=O)N4CSC[C@H]4C#N)c3c2)C1` [US20230312550, Example 137], the koff came to 9.8e-05 s⁻¹ and the kon is 9.5e+06 M⁻¹ s⁻¹.
Regarding `C[C@@H]1COC[C@H](C)N1c1cc2c(C(=O)NCC(=O)N3CSC[C@H]3C#N)ccnc2cc1Br` [US20230312550, Example 100], the dissociation rate constant (koff) worked out at 0.0022 s⁻¹ and the kon is 3e+06 M⁻¹ s⁻¹.
As to `C[C@]1(F)CCN(c2ccc3nccc(C(=O)NCC(=O)N4CSC[C@H]4C#N)c3c2)C1` [US20230312550, Example 198], the koff is 0.00011 s⁻¹ and the kon stood at 2.9e+06 M⁻¹ s⁻¹.
As to `N#C[C@@H]1CSCN1C(=O)CNC(=O)c1ccnc2ccc(N3CC(CC(F)F)C3)cc12` [US20230312550, Example 144], the koff stood at 0.00051 s⁻¹ and the kon amounted to 9.1e+06 M⁻¹ s⁻¹.
With `N#C[C@@H]1CSCN1C(=O)CNC(=O)c1ccnc2ccc(N3CCCC[C@H](F)C3)cc12` [US20230312550, Example 60], the koff was 0.00017 s⁻¹ and the kon stood at 1.7e+06 M⁻¹ s⁻¹.
`CC1(C)Cc2c(-c3ccc4nccc(C(=O)NCC(=O)N5CSC[C@H]5C#N)c4c3)cnn2C1` [US20230312550, Example 123]: the koff worked out at 0.00042 s⁻¹ and the kon is 3e+06 M⁻¹ s⁻¹.
`C[C@@H]1CCCN(c2ccc3nccc(C(=O)NCC(=O)N4CSC[C@H]4C#N)c3c2)C1=O` [US20230312550, Example 204]: the koff was 5.8e-05 s⁻¹ and the kon stood at 850000 M⁻¹ s⁻¹.
For `N#C[C@@H]1CSCN1C(=O)CNC(=O)c1ccnc2cc(Cl)c(N3CCOCC3)cc12` [US20230312550, Example 179] the same measures were 0.00016 s⁻¹ and 3.2e+06 M⁻¹ s⁻¹.
For `CN1CCC(F)(c2ccc3nccc(C(=O)NCC(=O)N4CSC[C@H]4C#N)c3c2)CC1` [US20230312550, Example 195], the koff turned out to be 6.1e-05 s⁻¹ and the kon worked out at 190000 M⁻¹ s⁻¹.
As to `N#C[C@@H]1CSCN1C(=O)CNC(=O)c1ccnc2ccc(N3C[C@H]4C[C@@H]3CO4)cc12` [US20230312550, Example 76], the koff came out at 5.2e-05 s⁻¹ and the kon stood at 1e+06 M⁻¹ s⁻¹.
For `N#C[C@@H]1CSCN1C(=O)CNC(=O)c1ccnc2ccc(N3C[C@@H]4C[C@H]3CO4)cc12` [US20230312550, Example 75], the koff stood at 2.4e-05 s⁻¹ and the kon is 2.3e+06 M⁻¹ s⁻¹.
For `N#C[C@@H]1CSCN1C(=O)CNC(=O)c1ccnc2ccc(N3CC(N4CCOCC4)C3)cc12` [US20230312550, Example 122], the koff was 4.3e-05 s⁻¹ and the kon worked out at 1.3e+06 M⁻¹ s⁻¹.
As to `Cc1nc(C)c(-c2ccc3nccc(C(=O)NCC(=O)N4CSC[C@H]4C#N)c3c2)o1` [US20230312550, Example 215], the koff turned out to be 0.00017 s⁻¹ and the on-rate constant (kon) was 1.8e+06 M⁻¹ s⁻¹.
